Like-named read-outs stand apart in the source and are kept apart here.
Legend:
[1] = Dynamic vapor sorption (DVS) mass change; type: physicochemical; conditions: Table 6, DVS at 40 degree C.
Excerpt: [table] The mass change by DVS isotherm (2 cycles 40-0-95-0-40% RH) are in the tables below. The mass change is based on the dry weight of each.

[2] = Solubility in water and biorelevant buffers at 25° C.; type: physicochemical; conditions: for XRPD of residual solid after solubility test / pH of solubility sample (pH) / solubility at 24 h: 25° C., 24 h; for solubility at 24 h: thermodynamic from solid, read-out: Solubility (mg/mL) S
Protocol: Purchase sodium taurocholate (NaTC) from supplier. Account for assay. Add amount corresponding to 3 mM to PBS V1. Stir until dissolved. Equilibrate 1 h at 25° C. or 37° C. before use. Dispose after 48 h.
Purchase FaSSIF-V2 from supplier (biorelevant.com). Amount added to PBS-V1 according to Table 1. Stir until dissolved. Equilibrate 1 h at 25° C. or 37° C. before use. Dispose after 48 h.
Purchase FeSSIF-V2 from supplier (biorelevant.com). Amount added to PBS-V1 according to Table 1. Stir until dissolved. Equilibrate 1 h at 25° C. or 37° C. before use. Dispose after 48 h.

[3] = Compression stability (XRPD after compression); type: physicochemical; conditions: 4 tons of compression for 5 min
Excerpt: Method: […] Afterwards, characterize the sample by XRPD to detect any change in the solid state.

[4] = Grinding and wet granulation; type: physicochemical
Excerpt: Method: Granulate was obtained in solid-state forms. […] Dry the wet-cake under vacuum or at atmospheric pressure. Evaluate solid form and degree of crystallinity by e.g. XRPD and/or DSC.

[5] = Water content by Karl Fischer titration; type: physicochemical; conditions: ambient conditions; relative to total weight of the salt / free form
[6] = Stability of Forms A and B under stress conditions (temperature/humidity, capsules, light)
Flow properties = type: physicochemical
Excerpt: See U.S. Pat. No. 11,642,315.

[7] = Intrinsic dissolution rate; type: physicochemical
[8] = Solubility in Simulated Fluids at 37° C.; type: physicochemical; conditions: for solubility at 30 min / solubility at 24 h: 37 °C, thermodynamic from solid; for solubility at 30 min: read-out: Solubility (mg/mL) 30 min; for solubility at 24 h: read-out: Solubility (mg/mL) 24 h
Excerpt: Solubility data of Form A (S)-4-(2,2-difluoro-7-((5-methoxy-7-methyl-1H-indol-4-yl)methyl)-7-azaspiro[3.5]nonan-6-yl)benzoic acid, Form B (S)-4-(2,2-difluoro-7-((5-methoxy-7-methyl-1H-indol-4-yl)methyl)-7-azaspiro[3.5]nonan-6-yl)benzoic acid p-toluene sulfonic acid salt, Form C (S)-4-(2,2-difluoro-7-((5-methoxy-7-methyl-1H-indol-4-yl)methyl)-7-azaspiro[3.5]nonan-6-yl)benzoic acid p-toluene sulfonic acid salt, and Form D (S)-4-(2,2-difluoro-7-((5-methoxy-7-methyl-1H-indol-4-yl)methyl)-7-azaspiro[3.5]nonan-6-yl)benzoic acid hydrochloride salt in Simulated Fluids at 37° C.

[9] = pH 2.0, 0.01 M HCl, 37° C., 100 rpm, 120 min
[10] = pH 6.5, phosphate buffer 50 mM (PBS-V1), 37° C., 100 rpm, 120 min

Question: Which results are given for `COc1cc(C)c2[nH]ccc2c1CN1CCC2(C[C@H]1c1ccc(C(=O)O)cc1)CC(F)(F)C2.Cc1ccc(S(=O)(=O)O)cc1` [Form B, (S)-4-(2,2-difluoro-7-((5-methoxy-7-methyl-1H-indol-4-yl)methyl)-7-azaspiro[3.5]nonan-6-yl)benzoic acid p-toluene sulfonate]?
Answer: Mass change by DVS, 1st Sorption (%) ([1]; 30% RH): 1.90%; Mass change by DVS, 2nd Desorption (%) ([1]; 30% RH): 1.91%; Mass change by DVS, 2nd Sorption (%) ([1]; 30% RH): 1.90%; Mass change by DVS, 1st Desorption (%) ([1]; 40% RH): 2.10%; Mass change by DVS, 1st Sorption (%) ([1]; 40% RH): 2.09%; Mass change by DVS, 2nd Desorption (%) ([1]; 40% RH): 2.09%; Mass change by DVS, 2nd Sorption (%) ([1]; 40% RH): 2.09%; Mass change by DVS, 1st Sorption (%) ([1]; 50% RH): 2.21%; Mass change by DVS, 2nd Desorption (%) ([1]; 50% RH): 2.22%; Mass change by DVS, 1st Sorption (%) ([1]; 60% RH): 2.28%; Mass change by DVS, 2nd Desorption (%) ([1]; 60% RH): 2.29%; Mass change by DVS, 1st Sorption (%) ([1]; 70% RH): 2.34%; Mass change by DVS, 2nd Desorption (%) ([1]; 70% RH): 2.37%; Mass change by DVS, 1st Sorption (%) ([1]; 80% RH): 2.40%; Mass change by DVS, 2nd Desorption (%) ([1]; 80% RH): 2.44%; Mass change by DVS, 1st Sorption (%) ([1]; 90% RH): 2.49%; Mass change by DVS, 2nd Desorption (%) ([1]; 90% RH): 2.49%; Mass change by DVS, 1st Sorption (%) ([1]; 95% RH): 2.52%; Mass change by DVS, 2nd Desorption (%) ([1]; 95% RH): 2.52%; XRPD of residual solid after solubility test ([2]; FaSSGF, pH 1.6): No change; pH of solubility sample (pH) ([2]; FaSSGF, pH 1.6): 1.77; pH of solubility sample (pH) ([2]; PBS-V1 + 3 mM NaTC, pH 6.5): 6.42; XRPD of residual solid after solubility test ([2]; PBS-V1 + 0.3 FeSSIF-V2, pH 6.5): Form A; pH of solubility sample (pH) ([2]; PBS-V1 + 0.3 FeSSIF-V2, pH 6.5): 6.12; XRPD of residual solid after solubility test ([2]; PBS-V1 + 2.0 FeSSIF-V2, pH 6.5): Form A; pH of solubility sample (pH) ([2]; PBS-V1 + 2.0 FeSSIF-V2, pH 6.5): 6.19; pH of solubility sample (pH) ([2]; PBS-V1 + FaSSIF-V2, pH 6.5): 6.35; XRPD of residual solid after solubility test ([2]; PBS-V1 + FeSSIF-V2, pH 6.5): Form A; pH of solubility sample (pH) ([2]; PBS-V1 + FeSSIF-V2, pH 6.5): 6.40; solubility at 24 h ([2]; fassgf or other biorelevant, FaSSGF, pH 1.6): 0.49 mg/mL; solubility at 24 h ([2]; fassgf or other biorelevant, PBS-V1 + 3 mM NaTC, pH 6.5): > 2 mg/mL; solubility at 24 h ([2]; fassgf or other biorelevant, PBS-V1 + 0.3 FeSSIF-V2, pH 6.5): 0.1 mg/mL; solubility at 24 h ([2]; fassgf or other biorelevant, PBS-V1 + 2.0 FeSSIF-V2, pH 6.5): 0.31 mg/mL; solubility at 24 h ([2]; PBS-V1 + FaSSIF-V2, pH 6.5): > 2 mg/mL; solubility at 24 h ([2]; PBS-V1 + FeSSIF-V2, pH 6.5): 0.2 mg/mL; solubility at 24 h ([2]; water): 0.39 mg/mL; solubility at 24 h compared with Form A ([2]; water and biorelevant buffers at 25° C., all media): significantly increased solubility; pH of solubility sample (pH) ([2]; water): 3.89; form change in XRPD after compression [3]: no form change; crystallinity from XRPD pattern after grinding ([4]; after grinding): crystallinity decrease; form change after grinding and wet granulation ([4]; dry grinding (2 min and 5 min) and wet granulation (water and ethanol)): did not lead to any form change; water content by Karl Fischer titration [5]: 2.3 % w/w; stability in HPMC and HGC capsules ([6]; 50° C. with 11% and 75% RH for 2 weeks): chemically and physically stable; degradation under light stress ([6]; 1200 kLux light stress): about 0.2%; discoloration under light stress ([6]; 1200 kLux light stress): slight discoloration; form change by XRPD after humidity exposure ([6]; exposed to 80% or 92% RH for 24 hrs): no change; chemical stability in bulk state ([6]; stored at 50° C. with 11% RH or 75% RH for 1 week): chemically stable; degradation in bulk state ([6]; stored at 80° C. with 75% RH): about 0.1%; discoloration in bulk state ([6]; stored at 80° C. with 75% RH): slight discoloration; chemical stability in bulk state ([6]; stored at 80° C./11% RH for 1 week): chemically stable; polymorphic form in the stress conditions ([6]; temperature/humidity and light stress conditions): no change; bulk density (Flow properties): good bulk density; flowability (Flow properties): good flowability; intrinsic dissolution rate ([7]; PBS-V1 (pH 6.5)): 0.18 mg/min/cm^2; intrinsic dissolution rate ([7]; pH 2.0, 0.01 M HCl): 0.015 mg/min/cm^2; form change after intrinsic dissolution [7, 9]: (No form change); intrinsic dissolution rate [7, 9]: 0.015 mg · min^−1 · cm^−2; form change after intrinsic dissolution [7, 10]: (No form change; intrinsic dissolution rate [7, 10]: 0.18 mg · min^−1 · cm^−2; solubility at 30 min ([8]; fassif, FaSSIF, 30 min): > 2 mg/mL; solubility at 30 min ([8]; fessif, FeSSIF, 30 min): > 2 mg/mL; solubility at 24 h ([8]; fessif, FeSSIF, 24 h): > 2 mg/mL; solubility at 30 min ([8]; pH 7, water, Water, initial pH 7.00, 30 min): 0.48 mg/mL; solubility at 24 h ([8]; pH 7, water, Water, initial pH 7.00, 24 h): 0.56 mg/mL; pH at 24 h ([8]; FaSSGF): 1.5; Solubility (mg/mL) 30 min ([8]; FaSSGF, 30 min): 0.40 mg/mL; Solubility (mg/mL) 24 h ([8]; FaSSGF, 24 h): 0.54 mg/mL; pH at 24 h ([8]; FaSSIF): 6.13; Solubility (mg/mL) 24 h ([8]; FaSSIF, 24 h): 0.53 (salt mg/mL; pH at 24 h ([8]; FeSSIF): 4.87; pH at 24 h ([8]; Water, initial pH 7.00): 3.60

Reference: US20260159497A1, “SOLID FORMS OF A COMPLEMENT FACTOR B INHIBITOR” (Novartis Pharma AG, priority 2022, published 2026)
